Measurements taken from patent US20100227841A1, “Patient populations and treatment methods” (Harbor BioSciencs, Inc., priority 2008, published 2010).

What was measured:
[1] = test system: pre-diabetic hyperglycemic patients and patients having type 2 diabetes; assay: Biomarkers in 28-day clinical trial (serum CRP, adipokines; cytokines from LPS stimulated PBMC by ELISA); assay type: in vivo, human
Procedure: Groups of pre-diabetic hyperglycemic patients and patients having type 2 diabetes were treated for 28 days with the experimental drug 17α-ethynylandrost-5-ene-3β,7β,17β-triol (oral capsules) or with placebo. Dosages for the pre diabetic patients were 0 mg per day (placebo control; n=10), 5 mg once per day (n=9; cohort 1), 5 mg twice per day (n=8; cohort 2) or 10 mg twice per day (n=7; cohort 3). Placebos were obtained with each treatment cohort based on protocol randomization of 2 treated:1 placebo. The pre-diabetic patients were obese (body mass index ≧29 kg/m^2) and glucose intolerant (fasting plasma glucose <126 mg/dL; 2-hr post prandial glucose 140-200 mg/dL after 75 g oral glucose). The diabetic patients were dosed with 10 mg/day for 28 days (n=6; cohort 6). The glucose clamp protocol was performed on groups of patients dosed with 10 mg/day or 20 mg/day of drug at baseline, one day before drug treatment started (day −1), and one day after the last day of dosing with the drug (day 29). Patients with an M value of <5 mg glucose/kg/min (M<5) were considered insulin resistant and patients with an M value of >5 mg glucose/kg/min (M>5) were considered insulin sensitive or essentially normal for whole body glucose metabolism.
Levels of cytokine biomarkers from patients with M values measured by glucose clamp such as MCP1, TNFα, IL-6 and IL-1β were measured by ELISA as the amount of cytokine secreted from LPS stimulated peripheral blood mononuclear cells from the patients at baseline (day −1) and at 1 day after the last day of drug dosing (day 29). Levels of RBP4 and CRP protein were measured from patient serum.
The analysis of responders used standard analysis. Due to the cohort sizes and the ongoing basis of this clinical protocol, data for surrogates that corresponded to significance at p≦0.10 (trend) were considered positive evidence of surrogacy of the biomarker for the M<5 insulin resistant condition.

female NOD mice = assay: Spontaneous autoimmune diabetes in non-obese diabetic (NOD) mouse model; assay type: in vivo; settings: for Insulitis Score/Islet (H&E) / β-Cell Score/Islet (Insulin): scale of 0 to 3
Description: Treatment of spontaneous autoimmune diabetes in non-obese diabetic (NOD) mouse model. The NOD model is used as an animal model for human type 1 diabetes. The NOD mouse strain spontaneously develops autoimmune (type 1) diabetes by a process that has similarities to human type 1 diabetes mellitus, e.g., immune-mediated selective destruction of the pancreatic islet 13-cells that produce insulin (M. A. Atkinson and N. K. Maclaren, New England J. Medicine, 331:1428-1436 1994). There is a higher incidence of diabetes (i.e., hyperglycemia, glucosuria, and hypoinsulinemia) in female vs. male NOD mice (80-90% vs. 10-20%, respectively). Disease incidence in this animal model is first observed at approximately 12 to 15 weeks of age with maximum incidence usually peaking 5 to 6 weeks later.
Methods. An oral formulation containing 17α-ethynylandrost-5-ene-3β,7β,17β-triol in 30% w/v β-cyclodextrin sulfobutyl ether sodium salt (Captisol®; CyDex, Inc., Overland Park, Kans.) was used. Six-week old female NOD mice (approximately 20-25 grams) were purchased from The Jackson Laboratories (Bar Harbor, Me.) and housed in a vivarium under pathogen-free conditions. The animals were acclimated for at least one week prior to initiation of oral dosing with 17α-ethynylandrost-5-ene-3β,7β,17β-triol. Animals were randomized into 5 per cage upon receipt and cages were subsequently randomized into dosing groups.
Female NOD mice were treated once daily with vehicle, 17α-ethynylandrost-5-ene-3β,7β,17β-triol (20 or 80 mg/kg in 100 μL, p.o.), or dexamethasone (0.25 mg/kg, 100 μL, i.p.) from 15 to 25 weeks of age (i.e., before the first incidence of diabetes; at the University of Catania), from 13 to 19 weeks of age (2 days after the first incidence of diabetes), or from 12 to 26 weeks of age (9 days after the first incidence of diabetes). Blood glucose was monitored using glucometers (ENCORE Glucometer, Bayer Corp., Elkhart, Ind.) at weekly intervals, beginning at 10 weeks of age. Mice with blood glucose levels 200 mg/dL on two consecutive occasions were considered diabetic. The percentage of animals with diabetes over the course of the experiment was monitored.
Histological assessment of insulitis and functional 13-cell content was assessed at the time of disease diagnosis or at the end of the 26-week study (i.e., disease-free mice). Pancreata (after CO2 euthanasia) were immediately isolated and placed in 10% buffered formalin at room temperature overnight, and then embedded in paraffin. After de-paraffinizing, pancreas samples were rehydrated and 5 μm sections were prepared and fixed on glass slides. Some sections were stained with hematoxylin and eosin (H&E) while others were stained with anti-insulin antibody as follows; prepared sections were immersed in Tris-Buffered Saline (TBS: 10 mM Tris buffer, pH 7.4, 0.15 M NaCl) containing 1% of bovine serum albumin (BSA) and 5% normal goat serum for 2 h at room temperature followed by incubation with 2 μg/mL rat anti-insulin IgG2a monoclonal antibody (MAB1417; R&D Systems, Minneapolis, Minn.) in TBS/1% BSA overnight at 4° C. in a humidified chamber. After washing with TBS/0.5 Tween-20, sections were covered with biotinylated anti-rat IgG secondary antibody (BD biosciences, 1:1,000) for 1 h at room temperature, followed by washing with TBS/Tween-20 and incubation with streptavidin-horseradish peroxidase for 30 min. Sections were then incubated with chromogen substrate, DAB (BD Biosciences), for 5 min and counterstained with hematoxylin. The degree of insulitis (leukocyte infiltration per islet; H&E) and functional 13-cell content per islet (insulin production) was scored using a scale of 0 to 3 in which 0=none, 1=few, 2=moderate, 3=high content of inflammatory cells or functional β-cells. Pancreata that were scored were obtained from a randomly-selected portion of mice from each cohort and scores were reported as the mean±SEM for each cohort.

[2] = cohort 2, 3 and 6 M<5 patients vs M>5 patients, p<0.03

C#C[C@]1(O)CC[C@H]2[C@@H]3[C@@H](O)C=C4C[C@@H](O)CC[C@]4(C)[C@H]3CC[C@@]21C [17α-ethynylandrost-5-ene-3β,7β,17β-triol]
adiponectin ([1]; M<5 drug treated patients): not affected
Resistin ([1]; M<5 drug treated subjects): increased much less
decrease in CRP ([1]; M<5 patients compared to M>5 patients, p=0.094 exact Mann-Whitney): significant
Leptin ([1]; all drug treated cohorts (decreased in placebo patients)): increased
IL-1β (LPS stimulated PBMC) [1, 2]: highly significant decrease
IL-6 (LPS stimulated PBMC) [1, 2]: highly significant decrease
MCP1 (LPS stimulated PBMC) [1, 2]: highly significant decrease
TNFα (LPS stimulated PBMC) [1, 2]: highly significant decrease
Leptin ([1]; cohort 6 (diabetic patients, 10 mg/day), p=0.002): significantly increased
TNFα (LPS stimulated PBMC) ([1]; day 29, drug treated M<5 vs drug treated M>5 patients, p=0.075): greater decrease
MCP1 (LPS stimulated PBMC) ([1]; day 29, drug treated M<5 vs drug treated M>5 patients, p=0.093): greater decrease
Resistin ([1]; drug treated subjects vs placebo control patients): increased less
CRP ([1]; insulin resistant subjects (M<5) compared to placebo-treated subjects, p=0.018 exact Mann-Whitney): significantly decreased
Disease Incidence (female NOD mice; 20 mg/kg p.o. once daily): 0.78 ± 0.15
No. Islets/pancreas (H&E) (female NOD mice; 20 mg/kg p.o. once daily): 2.4 ± 0.9
Insulitis Score/Islet (H&E) (female NOD mice; 20 mg/kg p.o. once daily): 2.5 ± 0.3
β-Cell Score/Islet (Insulin) (female NOD mice; 20 mg/kg p.o. once daily): 1.5 ± 0.4
effect on disease incidence (female NOD mice; 20 mg/kg, differs from 80 mg/kg, p=0.009 Fischer's Exact test): ineffective
Disease Incidence (female NOD mice; 80 mg/kg p.o. once daily): 0.17 ± 0.17
No. Islets/pancreas (H&E) (female NOD mice; 80 mg/kg p.o. once daily): 8.0 ± 3.1
Insulitis Score/Islet (H&E) (female NOD mice; 80 mg/kg p.o. once daily): 0.8 ± 0.4
β-Cell Score/Islet (Insulin) (female NOD mice; 80 mg/kg p.o. once daily): 2.6 ± 0.4
progressive increase in disease incidence (female NOD mice; 80 mg/kg single daily oral doses started 2 days or 9 days after first incidence of diabetes): suppressed
disease incidence relative to vehicle, meta-analysis across all studies (female NOD mice; 80 mg/kg, p=0.007 Fischer's Exact test): significant decrease
mean±SEM body weights (female NOD mice; Week 25, 20 mg/kg): 24.6 ± 0.8 g
mean±SEM body weights (female NOD mice; Week 25, 80 mg/kg): 24.7 ± 0.3 g
first incidence of diabetes (female NOD mice; week 19, once daily treatment from 15 to 25 weeks of age (vehicle 25%)): 8%
mean±SEM body weights (female NOD mice; week 31, end of study): 24.3 ± 0.6 g
maximum disease incidence during treatment (female NOD mice; weeks 23 through 25 (vehicle 66%), p<0.05 Chi-Squared test): 25%
